{
  "source": "patent US7943577B2",
  "about": "“Alpha-fetoprotein peptides and uses thereof” (Albany Medical College, priority 2001, dated 2011)",
  "design_in_all_cases": "key to Total Nuclear Estrogen Receptor / PCNA accumulation: “+” indicates increase; “−” indicates decrease; “NC” indicates no change",
  "key": {"[1]": {"test_system": "BHP 2-7 papillary thyroid cancer cells", "test": "PCNA and nuclear ERα immunoblot, BHP 2-7", "format": "cell-based", "description": "(§1) Cell lines. Glioma cells: C6 cells were cultured in F-12K medium with 18% FBS. F98 cells and GL261 cells were cultured in DMEM with 10% FBS. Head and neck cancer: 22B cells were cultured in DMEM with 10% FBS. Papillary thyroid cancers: BHP2-7 cells and BHP18-21 cells were cultured in DMEM with 10% FBS. Small cell lung cancer: HTB184 cells were cultured in RPMI medium with 10% FBS. Breast cancers: MCF-7 cells were cultured in DMEM (w/o phenol red) with 5% FBS and MDA-MB cells were cultured in DMEM with 10% FBS. Colon cancer: Colo 205 cells were cultured in RPMI medium with 10% FBS. Ovarian cancer: OVCAR-3 cells were culture in RPMI medium with 20% FBS supplemented with insulin. Prostate cancers: LNCaP cells were cultured in RPMI medium with 10% FBS. DU145 cells were cultured in MEM with 10% FBS and PC3 cells were cultured in F-12 medium with 10% FBS. Cervical cancer: HeLa cells were cultured in MEM with 10% FBS. Melanoma cells were cultured in DMEM with 10% FBS. These conditions were determined to maintain cellular production of proliferating cell nuclear antigen (PCNA) at high levels immediately prior to study of AFP-related peptide. All cell cultures were maintained in a 5% CO2/95% O2 incubator at 37 C. Cell fractionation. Fractionation in a microfuge and preparation of nucleoproteins was by our previously reported methods (1-3). Nuclear extracts were prepared by resuspension of the crude nuclei in high salt buffer (hypotonic buffer with 420 mM NaCl and 20% glycerol) at 4° C. with rocking for 1 hr. The supernatants were collected after subsequent centrifugation at 4° C. and 13,000 rpm for 10 min. Immunoblotting. The techniques are standard and have been described in a number of our publications (1-3). In brief, nucleoproteins were separated on discontinuous SDS-PAGE and then transferred by electroblotting to nitocellulose membranes (Millipore, Bedford, Mass.). […] Immunoreactive proteins are detected by chemiluminescence."}, "[2]": {"test_system": "small cell lung cancer HTB 184 cells", "test": "PCNA and nuclear ERα immunoblot, HTB 184", "format": "cell-based, human", "description": "as §1"}, "melanoma cells": {"test_system": "melanoma cells", "test": "PCNA and nuclear ERα immunoblot, melanoma", "format": "cell-based, human", "description": "Cell lines. Glioma cells: C6 cells were cultured in F-12K medium with 18% FBS. F98 cells and GL261 cells were cultured in DMEM with 10% FBS. Head and neck cancer: 22B cells were cultured in DMEM with 10% FBS. Papillary thyroid cancers: BHP2-7 cells and BHP18-21 cells were cultured in DMEM with 10% FBS. Small cell lung cancer: HTB184 cells were cultured in RPMI medium with 10% FBS. Breast cancers: MCF-7 cells were cultured in DMEM (w/o phenol red) with 5% FBS and MDA-MB cells were cultured in DMEM with 10% FBS. Colon cancer: Colo 205 cells were cultured in RPMI medium with 10% FBS. Ovarian cancer: OVCAR-3 cells were culture in RPMI medium with 20% FBS supplemented with insulin. Prostate cancers: LNCaP cells were cultured in RPMI medium with 10% FBS. DU145 cells were cultured in MEM with 10% FBS and PC3 cells were cultured in F-12 medium with 10% FBS. Cervical cancer: HeLa cells were cultured in MEM with 10% FBS. Melanoma cells were cultured in DMEM with 10% FBS. These conditions were determined to maintain cellular production of proliferating cell nuclear antigen (PCNA) at high levels immediately prior to study of AFP-related peptide. All cell cultures were maintained in a 5% CO2/95% O2 incubator at 37 C. Cell fractionation. Fractionation in a microfuge and preparation of nucleoproteins was by our previously reported methods (1-3). Nuclear extracts were prepared by resuspension of the crude nuclei in high salt buffer (hypotonic buffer with 420 mM NaCl and 20% glycerol) at 4° C. with rocking for 1 hr. The supernatants were collected after subsequent centrifugation at 4° C. and 13,000 rpm for 10 min. Immunoblotting. The techniques are standard and have been described in a number of our publications (1-3). In brief, nucleoproteins were separated on discontinuous SDS-PAGE and then transferred by electroblotting to nitocellulose membranes (Millipore, Bedford, Mass.). After blocking with 5% milk in Tris-buffered saline containing 0.1% Tween, the membranes were incubated with either mouse anti-human PCNA (Santa Cruz Biotech., Santa Cruz, Calif.) or mouse anti-human ER antibody (Santa Cruz) overnight. Secondary antibody was rabbit anti-mouse IgG (1:1000)(Dako), depending upon the origin of the primary antibody. Immunoreactive proteins are detected by chemiluminescence."}, "[3]": {"test_system": "colon cancer (Colo 205) cells", "test": "PCNA and nuclear ERα immunoblot, Colo 205", "format": "cell-based, human", "description": "as §1"}, "[4]": {"test_system": "MCF-7 breast cancer cells", "test": "PCNA and nuclear ERα immunoblot, MCF-7", "format": "cell-based, human", "description": "as §1"}, "C6 glioma cells": {"test_system": "C6 glioma cells", "test": "PCNA and nuclear ERα immunoblot, C6", "format": "cell-based, murine", "description": "as §1"}, "[5]": {"test_system": "ovarian cancer OVCAR-3 cells", "test": "PCNA and nuclear ERα immunoblot, OVCAR-3", "format": "cell-based", "description": "as §1"}, "[6]": {"test_system": "DU145 prostate carcinoma cells", "test": "PCNA and nuclear ERα immunoblot, DU145", "format": "cell-based, human", "description": "as §1"}, "[7]": {"conditions": "BHP 2-7 (Papillary Thyroid Cancer)"}, "[8]": {"conditions": "HTB 184 (Small Cell Lung Cancer)"}},
  "data": [
    {"molecule": "C[C@]12CC[C@@H]3c4ccc(O)cc4CC[C@H]3[C@@H]1CC[C@@H]2O", "note": "[E2, 17β-estradiol]", "values": [
      {"measurement": "PCNA accumulation", "setting": "[1]; [7]", "value": "+"},
      {"measurement": "Total Nuclear Estrogen Receptor", "setting": "[1]; [7]", "value": "+"},
      {"measurement": "nuclear ERα", "setting": "[1]; BHP 2-7, 10^−9 M E2 or 10^−7 M AFP-peptide, 24 h", "value": "increased nuclear accumulation of ERα"},
      {"measurement": "PCNA accumulation", "setting": "[2]; [8]", "value": "+"},
      {"measurement": "Total Nuclear Estrogen Receptor", "setting": "[2]; [8]", "value": "+"},
      {"measurement": "nuclear ERα", "setting": "[2]; HTB 184, 10^−9M E2 or 10^−6 M AFP-peptide, 24 h", "value": "increased nuclear ERα accumulation"},
      {"measurement": "PCNA accumulation", "setting": "melanoma cells; Melanoma (Skin Cancer)", "value": "−"},
      {"measurement": "Total Nuclear Estrogen Receptor", "setting": "melanoma cells; Melanoma (Skin Cancer)", "value": "−"},
      {"measurement": "nuclear ERα", "setting": "melanoma cells; melanoma, 10^−9 M E2 or 10^−6M AFP-peptide, 24 h", "value": "decrease nuclear ERα accumulation"},
      {"measurement": "PCNA accumulation", "setting": "melanoma cells; melanoma, AFP-peptide 10^−9 to 10^−7 M (left panel), 10^−9 M E2 or 10^−6M AFP-peptide (right panel), 24 h", "value": "reduce PCNA"},
      {"measurement": "PCNA accumulation", "setting": "[3]; Colo205 (Colon Cancer)", "value": "NC"},
      {"measurement": "Total Nuclear Estrogen Receptor", "setting": "[3]; Colo205 (Colon Cancer)", "value": "NC"},
      {"measurement": "nuclear ERα", "setting": "[3]; Colo 205, 10^−9 M E2 or 10^−7 M AFP-peptide, 24 h", "value": "did not increase nuclear accumulation of ER"},
      {"measurement": "PCNA accumulation", "setting": "[4]; MCF-7 (Breast Cancer)", "value": "+"},
      {"measurement": "Total Nuclear Estrogen Receptor", "setting": "[4]; MCF-7 (Breast Cancer)", "value": "+"},
      {"measurement": "nuclear accumulation of activated ER (phosphoERα)", "setting": "[4]; MCF-7, 10^−9 M E2 or 10^−8 M AFP-peptide, 24 h", "value": "increased nuclear accumulation of activated ER (phosphoERα)"},
      {"measurement": "PCNA accumulation", "setting": "C6 glioma cells; C6 (Glioma)", "value": "+"},
      {"measurement": "Total Nuclear Estrogen Receptor", "setting": "C6 glioma cells; C6 (Glioma)", "value": "+"},
      {"measurement": "nuclear ERα", "setting": "C6 glioma cells; C6, 10^−9 M E2 or 10^−6 M AFP-peptide, 24 h", "value": "increased nuclear accumulation of ERα"},
      {"measurement": "PCNA accumulation", "setting": "[5]; OVCAR-3 (Ovarian Cancer)", "value": "+"},
      {"measurement": "Total Nuclear Estrogen Receptor", "setting": "[5]; OVCAR-3 (Ovarian Cancer)", "value": "NC"},
      {"measurement": "nuclear ERα", "setting": "[5]; OVCAR-3, 10^−9 M E2 or 10^−7M AFP-peptide, 24 h", "value": "did not increase nuclear accumulation of ERα"},
      {"measurement": "PCNA accumulation", "setting": "[6]; DU 145 (Prostate Cancer)", "value": "−"},
      {"measurement": "Total Nuclear Estrogen Receptor", "setting": "[6]; DU 145 (Prostate Cancer)", "value": "−"},
      {"measurement": "nuclear ERα", "setting": "[6]; DU145, 10^−9 M E2 or 10^−6 M AFP-peptide, 24 h", "value": "did not increase nuclear accumulation of ERα"}
    ]}
  ]
}
